This is an account of results in patent US9012493B2, “1-heterodiene derivative and pest control agent” (Nippon Soda Co., Ltd., priority 2009, dated 2015).

Assay type in all cases: in vivo
In experiment [1] the test system is Rice Armyworm (Mythimna Separata). The experiment is described as follows: Efficacy test against rice armyworm, corn leaf dip. Conditions: 125 ppm, emulsifiable concentrate diluted with water, corn leaves immersed, second instar larvae, after 5 days, 25° C. The method, then:
(§1) Test Examples of the pest control agent thus obtained according to the present invention are shown below. In respective Test Examples, the insecticidal rate (%) was determined by the following calculation equation. Insecticidal rate (%)=(number of dead pests/number of released pests)×100
The emulsifiable concentrate obtained according to Formulation of Formulation Example 2 was diluted with water so as to control the concentration of the compound to 125 ppm. Leaves of corn were immersed in this diluted solution for 30 seconds and then air-dried. The leaves were put in a petri dish on which a filter paper is laid, and then five second instar larvae of rice armyworm were inoculated. After covering the petri dish with a glass lid, the petri dish was placed in a temperature-controlled room at a temperature of 25° C. and a humidity of 65%. After 5 days, life and death were examined and the insecticidal rate was determined. The test was repeated twice.

Experiment [2] relates to Sweetpotato Whitefly (Bemisia Tabaci). In words: Efficacy test against sweetpotato whitefly, sprayed tomato leaf. Conditions: 125 ppm, emulsifiable concentrate diluted with water, adults (type B), after 2 days, 25° C. How it is done:
as §1
The emulsifiable concentrate obtained according to Formulation of Formulation Example 2 was diluted with water so as to control the concentration of the compound to 125 ppm. The diluted solution was sprayed over a tomato leaf obtained by cutting and then air-dried. Using absorbent cotton, the leaf was fixed to a flask so that a front surface of the leaf faces upward. Seven pairs of adults of sweetpotato whitefly (type B) were inoculated in this container, and the container was placed in a temperature-controlled room at a temperature of 25° C. and a humidity of 65%. After 2 days, life and death were examined and the insecticidal rate was determined. The test was repeated twice.

The subject of experiment [3] is Twospotted Spider Mite (Tetranychus Urticae Koch). The experiment is described as follows: Efficacy test against twospotted spider mite, spray on kidney bean plant. Conditions: 125 ppm, wettable powder diluted with water, sprayed, female adults with resistance to an organophosphorus agent on kidney bean, after 3 days. How it is done:
The wettable powder obtained according to Formulation of Formulation Example 1 was diluted with water so as to control the concentration of the compound to 125 ppm. Seventeen female adults of twospotted spider mite with resistance to an organophosphorus agent were inoculated on a first true leaf of a kidney bean plant (approximately 7 to 10 days after sprouting) sown in a 3 sun/size pot (9 cm). The diluted solution was sprayed. The pot was placed in a temperature-controlled room at a temperature of 25° C. and a humidity of 65%. After 3 days, the adulticidal rate was examined. The test was repeated twice.

Experiment [4] has as its system Cotton Aphid (Aphis Gossypii). The experiment is described as follows: Efficacy test against cotton aphid, spray on cucumber plant. To be noted: 125 ppm, emulsifiable concentrate diluted with water, sprayed over cucumber plant with nymphs, after 5 days, 25° C. The method, then:
as §1
The emulsifiable concentrate obtained according to Formulation of Formulation Example 2 was diluted with water so as to control the concentration of the compound to 125 ppm. Adults of cotton aphids were inoculated to a cucumber plant (approximately 10 days after sprouting) sown in a 3 sun/size pot (9 cm). After 1 day, adult aphids were removed and the diluted solution was sprayed over the cucumber plant on which delivered nymphs are parasitic. The pot was placed in a temperature-controlled room at a temperature of 25° C. and a humidity of 65%. After 5 days, life and death were examined and the insecticidal rate was determined. The test was repeated twice.

With `CC(C)=C1CCC(=CSc2ccc(F)cc2)C(=Nc2ccc(C)cc2)S1` (mixture of isomers) [Compound 6-2], the insecticidal rate in experiment [1] and in experiment [2] was 100% in each case. This compound also had an adulticidal rate in experiment [3] of 100%.

Consider `C=C1SC(=Nc2ccc(C)cc2)C(=CSc2cccnc2)CC1(C)C` (mixture of isomers) [Compound 6-6], for which the insecticidal rate in experiment [1] and in experiment [2] was 100% each time. Further, the adulticidal rate in experiment [3] came out at 100%.

Consider `C=C1SC(=Nc2ccc(C)cc2)C(=CSc2ccc(F)cc2F)CC1(C)C` (mixture of isomers) [Compound 6-7], for which the insecticidal rate in experiment [1] and in experiment [2] was 100% in each case. Moreover, in experiment [3], the adulticidal rate stood at 100%.

As to `C=C1SC(=Nc2ccccc2OC)C(=CSc2ccccc2)CC1(C)C` [Compound 2-27], the insecticidal rate in experiment [1] and in experiment [2] was 100% throughout. Moreover, the adulticidal rate in experiment [3] was found to be 100%.

In experiment [2], `C=C1SC(=Nc2cc(OC)cc(OC)c2)C(=CSc2ccccc2)CC1(C)C` [Compound 2-38] registered an insecticidal rate of 100%. For the same compound, in experiment [3], the adulticidal rate is given as 100%.

Consider `C=C1CCC(=CSc2ccccc2)C(=Nc2ccsc2)S1` [Compound 2-52], for which the insecticidal rate in experiment [1], in experiment [4] and in experiment [2] was 100% in each case.

On to `C=C1SC(=Nc2ccccc2)C(=CSc2ccccc2)CC1(C)C` [Compound 2-53], for which the insecticidal rate in experiment [1], in experiment [4] and in experiment [2] was 100% in each case.

As for `C=C1SC(=Nc2ccccc2)C(=CSc2ccc(F)cc2)CC1(C)C` [Compound 2-54], the insecticidal rate in experiment [1], in experiment [4] and in experiment [2] was 100% in each case.

With `C=C1SC(=Nc2ccc(OC)cc2)C(=COc2ccccc2)CC1(C)C` [Compound 2-55], the insecticidal rate in experiment [1], in experiment [4] and in experiment [2] was 100% in each case.

For the compound `C=C1SC(=Nc2ccc(C)cc2)C(=CSc2ccc(F)cc2)CC12CCOCC2` [Compound 2-57], the insecticidal rate in experiment [1], in experiment [4] and in experiment [2] was 100% in each case.

`C=C1SC(=Nc2ccc(OC)cc2)C(=CSC2CCCC2)CC1(C)C` [Compound 2-58]: the insecticidal rate in experiment [1], in experiment [4] and in experiment [2] was 100% in each case.

As to `C=C1SC(=Nc2ccc(C)cc2OC)C(=CSc2ccccc2)CC1(C)C` [Compound 2-59], the insecticidal rate in experiment [1] and in experiment [2] was 100% in each case. The adulticidal rate in experiment [3] is 100%.

Consider `C=C1SC(=Nc2c(C)cccc2C)C(=CSc2ccccc2)CC1(C)C` [Compound 2-62], for which the insecticidal rate in experiment [1], in experiment [4] and in experiment [2] was 100% each time.

`C=C1SC(=Nc2c(C)cc(C)cc2C)C(=CSc2ccccc2)CC1(C)C` [Compound 2-63]: the insecticidal rate in experiment [1], in experiment [4] and in experiment [2] was 100% in each case.

For `C=C1SC(=Nc2c(F)cc(OC)cc2F)C(=CSc2ccccc2)CC1(C)C` [Compound 2-65], the insecticidal rate in experiment [1], in experiment [4] and in experiment [2] was 100% each time.

Consider `C=C1SC(=Nc2c(C)cc(C)cc2C)C(=CSc2cccs2)CC1(C)C` [Compound 2-66], for which the insecticidal rate in experiment [1], in experiment [4] and in experiment [2] was 100% each time.

As to `C=C1SC(=Nc2c(C)cc(OC)cc2C)C(=CSc2ccccc2)CC1(C)C` [Compound 2-67], the insecticidal rate in experiment [1], in experiment [4] and in experiment [2] was 100% each time.

On to `C=C1SC(=Nc2ccc(C)cc2)C(=CSc2cccc(Cl)n2)CC1(C)C` [Compound 2-91], for which the insecticidal rate in experiment [1], in experiment [4] and in experiment [2] was 100% each time.

For the compound `C=C1SC(=Nc2ccc(C)cc2)C(=CSc2ccncc2)CC1(C)C` [Compound 2-92], the insecticidal rate in experiment [1] and in experiment [2] was 100% in each case. The same compound displayed an adulticidal rate in experiment [3] of 100%.

Take `C=C1SC(=Nc2ccc(C)cc2)C(=CSc2ccoc2C)CC1(C)C` [Compound 2-93]: the insecticidal rate in experiment [1], in experiment [4] and in experiment [2] was 100% each time.

`C=C1SC(=Nc2ccc(C)cc2)C(=CSc2ccc(N(C)C)cc2)CC1(C)C` [Compound 2-97]: the insecticidal rate in experiment [1], in experiment [4] and in experiment [2] was 100% each time.

Consider `C=C1SC(=Nc2ccc(C)cc2)C(=CSc2nccc(C(F)(F)F)n2)CC1(C)C` [Compound 2-98], for which the insecticidal rate in experiment [1], in experiment [4] and in experiment [2] was 100% throughout.

As for `C=C1SC(=Nc2ccc(C)cc2)C(=CSc2cccc(Br)c2)CC1(C)C` [Compound 2-101], the insecticidal rate in experiment [1] and in experiment [2] was 100% throughout. In experiment [3], this compound yielded an adulticidal rate of 100%.

`C=C1SC(=Nc2ccc(C)cc2)C(=CSc2ccccc2Br)CC1(C)C` [Compound 2-102]: the insecticidal rate in experiment [1] and in experiment [2] was 100% each time. This compound yielded an adulticidal rate in experiment [3] of 100%.

Regarding `C=C1SC(=Nc2ccc(C)cc2)C(=CSc2sccc2C)CC1(C)C` [Compound 2-104], the insecticidal rate in experiment [1] and in experiment [2] was 100% in each case. Moreover, in experiment [3], the adulticidal rate was 100%.

The compound `C=C1SC(=Nc2ccc(C)cc2)C(=CSc2cccc(C(C)=O)c2)CC1(C)C` [Compound 2-105] displayed an insecticidal rate in experiment [1] of 100%. The adulticidal rate in experiment [3] is 100%.

`C=C1SC(=Nc2ccc(C)cc2)C(=CSc2ccccc2C)CC1(C)C` [Compound 2-111] had an insecticidal rate in experiment [1] of 100%. In addition, the adulticidal rate in experiment [3] came out at 100%.

For the compound `C=C1SC(=Nc2ccc(C)cc2)C(=CSCc2ccccc2)CC1(C)C` [Compound 2-112], the insecticidal rate in experiment [1], in experiment [4] and in experiment [2] was 100% throughout.

On to `C=C1SC(=Nc2ccc(C)cc2)C(=CSc2ccc3ccccc3n2)CC1(C)C` [Compound 2-113], for which the insecticidal rate in experiment [1] is recorded as 100%. Moreover, the adulticidal rate in experiment [3] is recorded as 100%.

Consider `C=C1SC(=Nc2ccc(C)cc2)C(=CSc2nccc(C)n2)CC1(C)C` [Compound 2-121], for which the insecticidal rate in experiment [1], in experiment [4] and in experiment [2] was 100% in each case.

Take `C#CCSC=C1CC(C)(C)C(=C)SC1=Nc1ccc(C)cc1` [Compound 2-122]: the insecticidal rate in experiment [1], in experiment [4] and in experiment [2] was 100% throughout.

As to `C=C1SC(=Nc2ccc(OC)cc2)C(=CSc2nccc(C)n2)CC1(C)C` [Compound 2-127], the insecticidal rate in experiment [1], in experiment [4] and in experiment [2] was 100% each time.

`C=C1SC(=Nc2ccccc2)C(=CSc2nccc(C)n2)CC1(C)C` [Compound 2-128]: the insecticidal rate in experiment [1], in experiment [4] and in experiment [2] was 100% in each case.

Regarding `C=C1SC(=Nc2ccccc2)C(=CSc2cccs2)CC1(C)C` [Compound 2-129], the insecticidal rate in experiment [1], in experiment [4] and in experiment [2] was 100% in each case.

Regarding `C=C1SC(=Nc2ccc(C)c(C)c2)C(=CSc2nccc(C)n2)CC1(C)C` [Compound 2-132], the insecticidal rate in experiment [1], in experiment [4] and in experiment [2] was 100% each time.
